Patent publication US20240271104A1, “COLONIZATION OF SURFACES WITH BIOLOGICAL CELLS” (Eberhard Karls Universität Tübingen Medizinische Fakultät, priority 2021, published 2024)

Assays:
Type in all cases: cell-based, human
[1] = test system: HUVECs; test: PrestoBlue cell viability assay after metabolic labeling; conditions: 50 μM Ac4ManNAz 48 h
Experimental: The influence of metabolic labeling on the viability of HUVECs was investigated 48 hours after labeling with 50 µM Ac4ManNAz using the PrestoBlue assay (Invitrogen, Carlsbad, USA). For this purpose, 500 μL of 1× Presto Blue cell viability reagent was added to each well of a 6-well plate and incubated for 1.5 h at 37° C. The fluorescence intensity of 100 μL supernatant was measured in triplicate at an excitation wavelength of 530 nm and an emission wavelength of 600 nm using a multimode microplate reader (Mithras LB 940, Berthold Technologies, Bad Wildbad, Germany).

[2] = test system: HUVECs; test: Metabolic labeling of HUVECs with azide groups, detection with DBCO-Sulfo-Cy3 by flow cytometry; conditions: 50 μM Ac4ManNAz 48 h, then 5 μM DBCO-Sulfo-Cy3 1 h
Experimental: To functionalize the cell surface of HUVECs with azide groups, 2×10^5 HUVECs per well of a 6-well plate were seeded and treated with or without 50 μM N-azidoacetylmannosamine-tetraacylated (Ac4ManNAz, Sigma Aldrich) in 2 ml medium for 48 h at 37° C. with 5% CO2. To detect the formed azido groups, the cells were washed with DPBS without Ca^2+/Mg^2+ and incubated with 5 μM DBCO-Sulfo-Cy3 (Jena Bioscience, Germany) in DPBS with Ca^2+/Mg^2+ for 1 h at 37° C. and 5% CO2. Cells were washed three times with 10 ml DPBS, detached with trypsin/EDTA (0.04%/0.03%) and centrifuged at 300×g for 5 min. The cell pellet was resuspended in 0.5 ml DPBS, and Cy3 labeling of 10,000 cells was analyzed by flow cytometry (FACS SCAN, BD, Heidelberg, Germany). In addition to the flow cytometric analyses, cells were stained for 30 minutes with ActinGreen™ 488 ReadyP-robes® reagent (Invitrogen) for the cytoskeleton and for 5 minutes with 0.2 μg/ml DAPI (Sigma Aldrich) to visualize the nuclei.

[3] = test system: endothelial layer on HFMs; test: Reactivity of the endothelial layer on HFMs to an inflammatory stimulus (qRT-PCR of adhesion molecules); conditions: 50 ng/mL TNF-α, 4 hours, mRNA normalized to GAPDH
Experimental: Endothelialized HFMs were incubated for 4 hours without or with 50 ng/mL tumor necrosis factor α (TNF-α, Sigma-Aldrich) in EGM™-2 endothelial cell growth medium without hydrocortisone. After incubation, HFMs were washed twice with DPBS and total RNA was isolated. Expression of the activation markers, endothelial leukocyte adhesion molecule 1 (E-selectin), vascular cell adhesion molecule 1 (VCAM-1) and intercellular adhesion molecule 1 (ICAM-1), was detected by qRT-PCR.
After 40 cycles, melting was performed.

Row | Compound | effect on viability of HUVECs [1] | Cy3-positive cells (N3 groups on the cell surface) [2] | E-selectin expression compared to non-stimulated endothelial layer [3] [fold] | ICAM-1 expression compared to non-stimulated endothelial layer [3] [fold] | VCAM-1 expression compared to non-stimulated endothelial layer [3] [fold]
1 | CC(=O)OC[C@H]1OC(OC(C)=O)[C@@H](NC(=O)CN=[N+]=[N-])[C@@H](OC(C)=O)[C@@H]1OC(C)=O (some centres unmarked) [Ac4ManNAz, N-azidoacetylmannosamine-tetraacylated] | no effect | about 98% |  |  | 
2 | tumor necrosis factor α [TNF-α] |  |  | 199 | 162 | 328
